Consider two compounds from patent USRE47689E1, “Compounds for treating spinal muscular atrophy” (PTC Therapeutics, Inc., priority 2011, dated 2019).

The subject of test [1] is full length and Δ7 SMN2 mRNAs. The test can be described thus: SMN2 mRNA RT-qPCR splicing assay in animal tissues. Conditions: C/C-allele SMA mice, brain and muscle, 10 mg/kg oral gavage twice per day for 10 days. It is filed as in vivo, mouse. The protocol: The reverse transcription-quantitative PCR-based (RT-qPCR) assay is used to quantify the levels of the full length and Δ7 SMN2 mRNAs in tissues from mice treated with test compound.
Protocol. C/C-allele SMA mice are treated by oral gavage two times per day for 10 days with test compounds resuspended in 0.5% HPMC and 0.1% Tween-80. Tissue samples were collected and snap frozen for RNA purification.
Tissue samples (20-40 mg) are homogenized in QIAzol Lysis Reagent for 2 minutes at 20 Hz in the TissueLyser II using one stainless steel bead. After addition of chloroform, the homogenate is separated into aqueous and organic phases by centrifugation. RNA partitioned to the upper, aqueous phase is extracted and ethanol is added to provide appropriate binding conditions. The sample is then applied to the RNeasy spin column from the RNeasy Mini Kit, where total RNA binds to the membrane. The RNA is eluted in RNase-free water then stored at −20° C. and subsequently analyzed using the TaqMan RT-qPCR on the 7900HT Thermocycler. Total RNA is diluted ten fold and 2.5 μL of the diluted sample is added to the TaqMan RT-qPCR mixture.
SMN2 spliced products are identified using the following primers and probes in Table 7. Primer SMN FL Forward B (SEQ ID NO. 7) hybridizes to a nucleotide sequence in exons 7 and 8, primer SMN Δ7 Forward B (SEQ ID NO. 8) hybridizes to a nucleotide sequence in exons 6 and 8, primer SMN Reverse B (SEQ ID NO. 9) hybridizes to a nucleotide sequence in exon 8, probe SMN Probe B (SEQ ID NO. 10) hybridizes to a nucleotide sequence in exon 8. These primers and probe hybridize to nucleotide sequences common to human SMN1 and SMN2 mRNAs. Since the SMA patient cells used in Example 5 contain only the SMN2 gene, RT-qPCR can quantify only SMN2 full-length and Δ7 mRNAs.
The SMN forward and reverse primers are used at final concentrations of 0.4 μM. The SMN probe is used at a final concentration of 0.15 μM. The SMN-GAPDH Mix (10 μL total volume) is prepared by combining 5 μL of 2×RT-PCR buffer, 0.4 μL of 25×RT-PCR enzyme mix, 0.5 μL of 20×GAPDH primer-probe mix, 1.505 μL of water, 2.5 μL of RNA solution, 0.04 μL of 100 μM forward primer, 0.04 μL of 100 μM reverse primer, and 0.015 μL of 100 μM SMN probe. […]
The increase of SMN2 FL and decrease in SMN2 Δ7 mRNAs relative to those in tissues from animals treated with vehicle control are determined from real-time PCR data using a modified ΔΔCt method (as described in Livak and Schmittgen, Methods, 2001, 25:402-8). The amplification efficiency E is calculated from the slope of the amplification curve for SMN2 FL, SMN2 Δ7, and GAPDH individually. The abundances of SMN2 FL, SMN2 Δ7, and GAPDH are then calculated as (1+E)^−Ct, where Ct is the threshold value for each amplicon. […]
For orientation: In qPCR the cycle at which signal appears reflects the starting amount.

The test system of test [2] is Smn protein. The test can be described thus: Smn protein in tissues of neonatal Δ7 SMA mice. The test is classed as in vivo, mouse. Conditions: neonatal SMA Δ7 homozygous knockout mice; brain, spinal cord, muscle; IP QD from PND 3 to day 9. The protocol: Protocol. The tissue samples in Safe-Lock tubes are weighed and the volume of RIPA buffer containing the protease inhibitor cocktail is added based on the weight to volume ratios for each type of tissue: Brain (50 mg/mL), Muscle (50 mg/mL) and Spinal Cord (25 mg/mL).
Tissues are homogenized using the TissueLyzer by bead milling. 5 mm stainless steel beads are added to the sample and shaken vigorously for 5 minutes at 30 Hz in the TissueLyzer. The samples are then centrifuged for 20 minutes at 14,000×g in a microcentrifuge and the homogenates transferred to the PCR plate. The homogenates are diluted in RIPA buffer to approximately 1 mg/mL for HTRF and approximately 0.5 mg/mL for total protein measurement using the BCA protein assay. […] Fluorescence for each well of the plate at 665 nm and 620 nm is measured on an EnVision multilabel plate reader (Perkin-Elmer). The total protein in the tissue homogenate is measured using the BCA assay according to the manufacturer's protocol.
The normalized fluorescence signal is calculated for each sample, Blank and vehicle control well by dividing the signal at 665 nm by the signal at 620 nm. Normalizing the signal accounts for possible fluorescence quenching due to the matrix effect of the tissue homogenate. […] The ΔF value for each tissue sample well is divided by the total protein quantity (determined using the BCA assay) for that tissue sample. […]

As to `CC(C)NCCc1ccc2cc(-c3nc4c(Cl)cccc4s3)c(=O)oc2c1` [Cpd 35, 3-(4-chloro-1,3-benzothiazol-2-yl)-7-[2-(propan-2-ylamino)ethyl]-2H-chromen-2-one], in test [1], the “SMN2 FL mRNA relative to vehicle” value was “substantially more SMN2 FL mRNA” and the “SMN2 Δ7 mRNA relative to vehicle” value is on record as “less SMN2 Δ7 mRNA”. Besides, the “total protein normalized Smn level” value in test [2] is “dose dependently increased”.

Regarding `CCN1CCN(c2ccc3cc(-c4cn5cc(C)nc(C)c5n4)c(=O)oc3c2)C[C@@H]1C` [Cpd 626, 3-(6,8-dimethylimidazo[1,2-a]pyrazin-2-yl)-7-[(3S)-4-ethyl-3-methylpiperazin-1-yl]-2H-chromen-2-one], in test [1], the “SMN2 FL mRNA relative to vehicle” value is listed as “substantially more SMN2 FL mRNA” and the “SMN2 Δ7 mRNA relative to vehicle” value was “less SMN2 Δ7 mRNA”. In test [2], the “total protein normalized Smn level” value is “dose dependently increased”.
